From ChEMBL document CHEMBL1155767, “Three new sesquiterpene glycosides from Dendrobium nobile with immunomodulatory activity” (2001) come the findings set out here.

Common to all, as to assay type: functional
In experiment [1] the test system is Lymphocyte. Nature of the experiment: Immunomodulatory activity in LPS-stimulated mouse lymphocytes assessed as proliferative optical density at 1 uM after 48 hrs by MTT assay (Rvb=0.45+/-0.01). In general terms: Tetrazolium dyes change colour on reduction, which living cells bring about.
Experiment [2] concerns Lymphocyte. Nature of the experiment: Immunomodulatory activity in concanavalin A-stimulated mouse lymphocytes assessed as proliferative optical density at 10 uM after 48 hrs by MTT assay (Rvb=0.47+/-0.01).
Experiment [3] concerns Lymphocyte. Nature of the experiment: Immunomodulatory activity in LPS-stimulated mouse lymphocytes assessed as proliferative optical density at 0.1 uM after 48 hrs by MTT assay (Rvb=0.45+/-0.01).
Experiment [4] concerns Lymphocyte. Nature of the experiment: Immunomodulatory activity in LPS-stimulated mouse lymphocytes assessed as proliferative optical density at 10 uM after 48 hrs by MTT assay (Rvb=0.45+/-0.01).
The subject of experiment [5] is Lymphocyte. Nature of the experiment: Immunomodulatory activity in concanavalin A-stimulated mouse lymphocytes assessed as proliferative optical density at 0.1 uM after 48 hrs by MTT assay (Rvb=0.47+/-0.01).
The subject of experiment [6] is Lymphocyte. Nature of the experiment: Immunomodulatory activity in concanavalin A-stimulated mouse lymphocytes assessed as proliferative optical density at 1 uM after 48 hrs by MTT assay (Rvb=0.47+/-0.01).
Experiment [7] concerns Lymphocyte. Nature of the experiment: Immunomodulatory activity in concanavalin A-stimulated mouse lymphocytes assessed as proliferative optical density at 1 uM after 48 hrs by MTT assay (Rvb=0.80+/-0.02).
In experiment [8] the test system is Lymphocyte. Nature of the experiment: Immunomodulatory activity in LPS-stimulated mouse lymphocytes assessed as proliferative optical density at 10 uM after 48 hrs by MTT assay (Rvb=0.56+/-0.03).
Experiment [9] relates to Lymphocyte. Nature of the experiment: Immunomodulatory activity in concanavalin A-stimulated mouse lymphocytes assessed as proliferative optical density at 10 uM after 48 hrs by MTT assay (Rvb=0.80+/-0.02).
The test system of experiment [10] is Lymphocyte. Nature of the experiment: Immunomodulatory activity in LPS-stimulated mouse lymphocytes assessed as proliferative optical density at 0.1 uM after 48 hrs by MTT assay (Rvb=0.56+/-0.03).
Experiment [11] deals with Lymphocyte. Nature of the experiment: Immunomodulatory activity in LPS-stimulated mouse lymphocytes assessed as proliferative optical density at 1 uM after 48 hrs by MTT assay (Rvb=0.56+/-0.03).
The test system of experiment [12] is Lymphocyte. Nature of the experiment: Immunomodulatory activity in concanavalin A-stimulated mouse lymphocytes assessed as proliferative optical density at 0.1 uM after 48 hrs by MTT assay (Rvb=0.80+/-0.02).

Structures are written as SMILES.

On to `C[C@@H]1CC[C@H]2[C@@H]1[C@H]1[C@@H](CC[C@@]2(O)CO[C@@H]2O[C@H](CO)[C@@H](O)[C@H](O)[C@H]2O)[C@@]1(C)CO` [DENDROSIDE A], for which the OD in the experiment on Lymphocyte [1] is 0.52; with Lymphocyte [2] it was 0.5; in the experiment on Lymphocyte [3] it was 0.45; in the experiment with Lymphocyte [4], 0.45; with Lymphocyte [5], 0.64; in the experiment on Lymphocyte [6] it was 0.62.

As for `CC(C)[C@H]1CC[C@]2(C)[C@@H](CO[C@@H]3O[C@H](CO)[C@@H](O)[C@H](O)[C@H]3O)CC[C@@H]2[C@@H]1CO[C@@H]1O[C@H](CO)[C@@H](O)[C@H](O)[C@H]1O` [DENDRONOBILOSIDE A], the OD in the experiment with Lymphocyte [1] stood at 0.5; in the experiment on Lymphocyte [2] it was 0.6; with Lymphocyte [3] it was 0.49; in the experiment on Lymphocyte [4] it was 0.56; in the experiment on Lymphocyte [5], 0.46; in the experiment on Lymphocyte [6], 0.53.

For `CC(C)[C@H]1CC[C@@]2(C)[C@H](CC[C@]2(O)CO)[C@@H]1CO[C@@H]1O[C@H](CO)[C@@H](O)[C@H](O)[C@H]1O` [DENDRONOBILOSIDE B], the OD in the experiment with Lymphocyte [7] came out at 0.68; in the experiment with Lymphocyte [8], 0.57; with Lymphocyte [9], 0.71; in the experiment on Lymphocyte [10] it was 0.54; in the experiment on Lymphocyte [11], 0.51; in the experiment with Lymphocyte [12] it was 0.68.
